These results are taken from US20070117770A1, “Human ribosomal DNA (rDNA) and ribosomal RNA (rRNA) nucleic acids and uses thereof” (Cylene Pharmaceuticals, Inc., priority 2005, published 2007).

Where only a bound is given, the exact number is not on record here.

Series [1] has as its system rRNA synthesis, HCT-116. Nature of the series: PCR assay of rRNA synthesis from 45S rDNA (5' ETS probe). The series is classed as cell-based. Particulars: Homo sapiens; rRNA synthesis, HCT-116; read-out: QPCRrDNA IC50_HCT-116. How it is done: Assays were conducted to determine the effects of compounds on rRNA synthesis from 45S rDNA. In particular, compound A-1 at various concentrations was incubated with cells and tested for an effect on rRNA synthesis after a two hour or four hour incubation with the compound. Synthesized rRNA was quantified by a polymerase chain reaction (PCR) assay. A primer/probe set was designed using Primer Express software and synthesized by Applied Biosystems. The 5′ ETS Probe utilized had the following sequence (@ its 3′ end): 6FAM-TTG ATC CTG CCA GTA GC-MGBNFQ (SEQ ID NO:227). The primer sequences were as follows:
(§1) Mix • 1 ug RNA • 2.5 ul 10× Taq Man buffer • 5.5 ul 25 mM MgCl2 • 5 ul of a mix of dNTP (500 uM each) • 1.2 ul random hexamer primer (2.5 uM stock) • 0.5 ul RNase inhibitor (0.4 units/ul) • 0.6 ul Reverse Transcriptase (1.2 units/ul) • bring to 25 ul total volume with water
(§2) Mix • 5 ul Reverse Transcriptase reaction product • 12.5 ul 2×PCR mix • 1 uM forward primer • 1 uM reverse primer • 0.5 uM Taq Man probe • 500 nM Rox • Adjust to 25 ul final volume with water
(§3) PCR cycles • 95 degrees C. 1 minute • 40 cycles of • 95 degrees C. 15 seconds • 60 degrees C. 1 minute.
(§4) Fluorescence of digested label was detected and quantified. […] The effect of other compounds on rRNA synthesis also were assessed in the assay, and provided in the table hereafter are IC50 values of selected compounds pertaining to rRNA synthesis and cMYC RNA synthesis.

For series [2], the system named is cMYC RNA synthesis, HCT-116. The series is described as follows: PCR control assay of C-myc transcription. The class given is cell-based. Particulars: for IC50: Homo sapiens, read-out: QPCRMYC IC50_HCT-116. The procedure: A control assay that detected effects of the compounds on C-myc transcription also was conducted using a primer/probe set purchased from ABI (TaqMan Gene Expression Assay with assay ID: Hs99999003_m1). The following assay protocol was utilized:
as §1, §2, §3, §4

The subject of series [3] is 28S rRNA and 18S rRNA (total RNA from HCT116 cells). The series is described as follows: Human rRNA interaction screening assay (agarose gel electrophoresis mobility shift). Particulars: 1 ug total RNA; 10 uM compound or 0.5 ug/mL PI, 15 min, room temperature. The class given is binding. How it is done: RNA was isolated from HCT116 cells (RNeasy kit, QIAGEN) and contacted in vitro with each compound from a library of compounds. In representative assays, 1 ug of total RNA from HCT116 cells was incubated with 0.5 ug/mL of propidium iodide (PI), 10 uM compound A-1 or another compound in the library in a volume of 10 uL for 15 min at room temperature, followed by agarose gel electrophoresis. Fluorescence of the compounds was visualized on each gel. […] Compounds C-1, C-2, C-3, C-4 and C-5 have the following general formula: [drawing 15] [drawing 16]

Series [4] deals with T1, nucleolin (Homo sapiens, UniProt P19338).
T1 construct: without the N-terminal acidic stretches domain
T1 sequence (P19338 284-710 limits assumed): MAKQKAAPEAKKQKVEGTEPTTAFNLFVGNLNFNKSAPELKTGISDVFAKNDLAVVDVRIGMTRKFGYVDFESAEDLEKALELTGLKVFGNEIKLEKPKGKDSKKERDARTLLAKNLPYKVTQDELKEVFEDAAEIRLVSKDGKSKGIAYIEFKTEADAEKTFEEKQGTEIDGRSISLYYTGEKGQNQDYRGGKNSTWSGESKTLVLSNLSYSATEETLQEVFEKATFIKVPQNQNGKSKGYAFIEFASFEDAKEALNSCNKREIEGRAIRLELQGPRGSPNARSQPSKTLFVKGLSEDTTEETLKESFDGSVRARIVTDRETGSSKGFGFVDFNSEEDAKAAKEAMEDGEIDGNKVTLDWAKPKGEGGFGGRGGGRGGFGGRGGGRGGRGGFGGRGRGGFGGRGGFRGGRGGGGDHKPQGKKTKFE
The series is described as follows: Filter-binding assay of 32P-labeled quadruplexes and Nucleolin. Particulars: for Kd: 0.2 nM 32P-labeled quadruplex, read-out: Kd, apparent dissociation constant of nucleolin protein and the nucleic acid ligand. How it is done: The assay also was conducted in a filter-binding format. […] The protein-quadruplex mixtures were incubated for 30 min at ambient temperature and filtered through mixed cellulose ester membrane filters (Millipore) with gentle suction. The filters were washed twice with […] of binding buffer, dried and OptiPhase ‘SuperMix’ scintillation cocktail (Perkin Elmer) was added to the wells. Radioactivity was assayed with MicroBeta scintillation counter (Perkin Elmer). Binding curves were constructed and apparent Kd's and Bmax's for the complexes were calculated using the GraphPad Prizm software program (GraphPad Software). In the following table, the nucleic acid ligand is designated in the first column using the nomenclature described herein; the second column provides the nucleotide sequence of the nucleic acid ligand; the third column is the conformation of the ligand as determined by circular dichroism (M is mixed, P is parallel, A is antiparallel, C is complex, SS is single-stranded and ND is not determined); the fourth column is the dissociation constant determined by the filter binding assay of nucleolin protein and the nucleic acid ligand; the fifth column is a Bmax constant determined by the filter binding assay, which is the percent of active nucleic acid ligand in each assay; and the sixth column presents the concentration of Compound A-1 required to dissociate half of the complexed nucleic acid ligand and nucleolin protein, as determined by the EMSA assay described above.

Consider `O=C(NCCN1CCCC1)c1cn2c3c(c(NCCN4CCCC4)c(F)cc3c1=O)Oc1ccccc1-2` [Compound 1], for which the figures for the IC50 in series [1] and in series [2] were 50 nM and 10 nM, respectively. Take `CC(C)N1CCN(c2c(F)cc3c(=O)c(C(=O)NCCN4CCCC4)cn4c3c2Oc2cc(Cl)ccc2-4)CC1` [Compound 2]: the IC50 in series [1] worked out at 50 nM; in series [2], 100 nM.

In the case of `CC(C)N1CCN(c2nc3c(cc2F)c(=O)c(C(=O)NCCC2CCCN2C)c2n(C)c4ccc(C#N)cc4n32)CC1` (centres unmarked) [Compound 3], in series [1], the IC50 came to 50 nM. In addition, the “QPCRMYC IC50_HCT-116” value in series [2] was “INACTIVE”. As for `CC(=O)N1CCN(c2c(F)cc3c(=O)c(C(=O)NCCN4CCCC4)cn4c3c2Oc2cc(Cl)ccc2-4)CC1` [Compound 4], the IC50 in series [1] amounted to 50 nM; in series [2] it was 300 nM.

As for `O=C(NCCN1CCCC1)c1cn2c3c(c(N4CCOCC4)c(F)cc3c1=O)Oc1cc(Cl)ccc1-2` [Compound 5], the IC50 in series [1] amounted to 50 nM; in series [2], 300 nM. On to `CC(=O)N1CCN(c2ccc3c(=O)c(C(=O)NCCN4CCCC4)c4sc5ccccc5n4c3n2)CC1` [Compound 6], for which the results for the IC50 in series [1] and in series [2] were 80 nM and 300 nM, respectively. As for `O=C(NCCN1CCOCC1)c1c(=O)c2cnc(N3CCNCC3)nc2n2c1sc1ccccc12` [Compound 7], the IC50 in series [1] turned out to be 80 nM; in series [2] it was 300 nM. As to `CC(=O)N1CCN(c2ccc3c(=O)n(CCCN4CCCC4)c4nc5ccccc5n4c3n2)CC1` [Compound 8], the IC50 in series [1] came to 50 nM; in series [2], 300 nM. In the same order, the values of `COc1ccc2c(=O)c(C(=O)NCCN3CCCC3)c3sc4ccccc4n3c2n1` [Compound 9] are 50 nM and 300 nM. As to `CN1CCCC1CCNC(=O)c1cn2c3c(c(N4CCC(c5ccccn5)C4)c(F)cc3c1=O)Oc1cc3ccccc3cc1-2` (centres unmarked) [Compound C-1], the “binding to 28S versus 18S rRNA” value in series [3] was “selective binding to 28S over 18S”. As to `CN1CCCC1CCNC(=O)c1cn2c3c(c(N4CCC(c5ccccn5)C4)c(F)cc3c1=O)Oc1cc3ccccc3cc1-2` (centres unmarked) [Compound C-2], the “binding to 28S versus 18S rRNA” value in series [3] was “selective binding to 28S over 18S”.

Turning to `CN1CCCC1CCNC(=O)c1cn2c3c(c(N4CCC(c5ccccn5)C4)c(F)cc3c1=O)Oc1cc3ccccc3cc1-2` (centres unmarked) [Compound C-3], in series [3], the “binding to 28S versus 18S rRNA” value is reported as “less selectivity for 28S over 18S”. As for `CN1CCCC1CCNC(=O)c1cn2c3c(c(N4CCC(c5ccccn5)C4)c(F)cc3c1=O)Oc1cc3ccccc3cc1-2` (centres unmarked) [Compound C-4], the “binding to 28S versus 18S rRNA” value in series [3] was “less selectivity for 28S over 18S”. `CN1CCCC1CCNC(=O)c1cn2c3c(c(N4CCC(c5ccccn5)C4)c(F)cc3c1=O)Oc1cc3ccccc3cc1-2` (centres unmarked) [Compound C-5]: the “binding to 28S versus 18S rRNA” value in series [3] is recorded as “specific binding to 28S over 18S”. As for `CC[N+](C)(CC)CCC[n+]1c(-c2ccccc2)c2cc(N)ccc2c2ccc(N)cc21.[I-].[I-]` [PI, propidium iodide, reference compound], the “binding to 28S versus 18S rRNA” value in series [3] was “did not discriminate in its binding to 18S and 28S rRNA”.

“AGGGGGGAACGGGGGGCGGACGGGGCCGGGGGGGTAGGGCGGGGGG (DNA, backbone and methylation of C not given here; listed as Homo sapiens) [Compound 11345T]”: in series [4], the “Bmax, percent of active nucleic acid ligand” value (from here on “Bmax, percent”) is recorded as 32% and the Kd stood at 0.3 nM.

Take “AGGGGGTGGGCGCCGGGAGGGGGG (DNA, backbone and methylation of C not given here; listed as Homo sapiens) [Compound 8904T]”: in series [4], the “Bmax, percent” value is 31% and the Kd was found to be 0.4 nM. In the same order, the values of “AGGGTGGGGCGGGGGAGGGCCGCGAGGGGGGTGCCCCGGGCGTGGGGGGGG (DNA, backbone and methylation of C not given here; listed as Homo sapiens) [Compound 10885T]” are 82% and 0.2 nM. Take “AGGGTTAGGGTTAGGGTTAGGG [hTeI, reference compound]”: the Kd in series [4] is greater than 30 nM. As for “GGAGGAGGAGGA (DNA, backbone not given here; listed as Homo sapiens) [GGA4, reference compound]”, the Kd in series [4] was greater than 30 nM.

For the molecule “GGGCCCGCGGGGGGAGGGGGAAGGGGCGGG (DNA, backbone and methylation of C not given here; listed as Homo sapiens) [Compound 6914T]”, in series [4], the “Bmax, percent” value was 50% and the Kd turned out to be 0.8 nM. Take “GGGCCGGGACGGGGTCCGGGG (listed as DNA, chemistry not given here; listed as Homo sapiens) [Compound 13173NT]”: in series [4], the Kd was greater than 30 nM.

For “GGGCGGGGGGGGCGGGGGG (DNA, backbone and methylation of C not given here; listed as Homo sapiens) [Compound 6534NT]”, in series [4], the “Bmax, percent” value is 51% and the Kd was determined as 1.1 nM. With “GGGCTGGGTCGGTCGGGCTGGGG (listed as DNA, chemistry not given here; listed as Homo sapiens) [Compound 10816NT]”, in series [4], the Kd was greater than 30 nM. In the case of “GGGGGCGGGAACCCCCGGGCGCCTGTGGG (DNA, backbone and methylation of C not given here; listed as Homo sapiens) [Compound 6374NT]”, in series [4], the “Bmax, percent” value came to 47% and the Kd stood at 5.5 nM. With “GGGGTGGGGGGGAGGG (listed as DNA, chemistry not given here; listed as Homo sapiens) [Compound 13079NT]”, in series [4], the “Bmax, percent” value came to 37% and the Kd turned out to be 2.6 nM. As to “GGGTCCGGAAGGGGAAGGGTGCCGGCGGGGAGAGAGGGTCGGGGG (DNA, backbone and methylation of C not given here; listed as Homo sapiens) [Compound 7253NT]”, in series [4], the “Bmax, percent” value amounted to 60% and the Kd is 0.4 nM. In the same order, the values of “GGGTCGGGGGGTGGGGCCCGGGCCGGGG (listed as DNA, chemistry not given here; listed as Homo sapiens) [Compound 2957NT]” are 66% and 2.7 nM.

“GGGTGGACGGGGGGGCCTGGTGGGG (listed as DNA, chemistry not given here; listed as Homo sapiens) [Compound 1196NT]”: in series [4], the “Bmax, percent” value was determined as 41% and the Kd turned out to be 4.2 nM. The like results for “GGGTGGCGGGGGGGAGAGGGGGG (listed as DNA, chemistry not given here; listed as Homo sapiens) [Compound 6960NT]” were, in that order, 68% and 0.5 nM. For the molecule “GTCGTAACGTCGATCAGTTTACGACAT (DNA, backbone and methylation of C not given here; listed as Homo sapiens) [RND27, reference compound]”, in series [4], the Kd is greater than 30 nM. Regarding “TGGGGAGGGTGGGGAGGGTGGGGAATT (DNA, backbone not given here; listed as Homo sapiens) [Myc27, reference compound]”, in series [4], the “Bmax, percent” value was determined as 33% and the Kd came out at 4.4 nM.
